This is an account of results in patent US7192948B2, “Bicyclic heterocycles as HIV integrase inhibitors” (priority 2004, dated 2007).

The assay has as its target T1, HIV-integrase (Human immunodeficiency virus type 1 group M subtype B, UniProt P12497).
T1 construct: Recombinant integrase (0.26 ng) was incubated with the beads
Put plainly: HIV-Integrase Inhibition Activity (SPA bead strand transfer assay). In kind it is biochemical. The settings on record: recombinant integrase, in vitro. Here is the method: HIV-Integrase Inhibition Activity. To evaluate in-vitro activity against HIV-integrase, 5 pmole of biotin labeled substrate DNA was bound to 100 μg of Streptavidin coated PVT SPA beads (Amersham Pharmacia Biotech). Recombinant integrase (0.26 ng) was incubated with the beads for 90 min at 37° C. Unbound enzyme was removed by washing the complex followed by addition of inhibitors and 0.1 fmol of P33 labeled target DNA. The reaction was stopped by adding EDTA to a final concentration of […]. Samples were counted in TopCountNXT (Packard) and the CPM was used as a measure of integration. The reaction condition was as described in A. Engelman and R. Craigie, J. Virol. 69, 5908–5911 (1995). The sequences of substrate and target DNA were described in Nucleic Acid Research 22, 1121–1122 (1994).

As a reminder, the IC50 is the concentration that inhibits the measured activity by half. Consider `O=C1Cn2c(nc(C(=O)NCc3ccc(F)cc3)c(O)c2=O)N1` [Example 1, 6-Hydroxy-2,5-dioxo-1,2,3,5-tetrahydro-imidazo[1,2-a]pyrimidine-7-carboxylic acid 4-fluoro-benzylamide], for which the IC50 was ≥ 0.05 µM. In the case of `CN1C(=O)Cn2c1nc(C(=O)NCc1ccc(F)cc1)c(O)c2=O` [Example 9, N-(4-Fluorobenzyl)-6-hydroxy-1-methyl-2,5-dioxo-1,2,3,5-tetrahydroimidazo[1,2-a]pyrimidine-7-carboxamide] it was ≥ 0.05 µM; in that of `CN1C(=O)Cn2c1nc(C(=O)NCc1ccc(Cl)c(Cl)c1)c(O)c2=O` [Example 10, N-(3,4-Dichlorobenzyl)-6-hydroxy-1-methyl-2,5-dioxo-1,2,3,5-tetrahydroimidazo[1,2-a]pyrimidine-7-carboxamide], 0.004 to 0.015 µM. For the molecule `Cc1cc(CNC(=O)c2nc3n(c(=O)c2O)CC(=O)N3C)ccc1F` [Example 11, N-(4-Fluoro-3-methylbenzyl)-6-hydroxy-1-methyl-2,5-dioxo-1,2,3,5-tetrahydroimidazo[1,2-a]pyrimidine-7-carboxamide], the IC50 lay within 0.004 to 0.015 µM. On to `CN1C(=O)Cn2c1nc(C(=O)NCc1ccc(F)c(Cl)c1)c(O)c2=O` [Example 12, N-(3-Chloro-4-fluorobenzyl)-6-hydroxy-1-methyl-2,5-dioxo-1,2,3,5-tetrahydroimidazo[1,2-a]pyrimidine-7-carboxamide], for which the IC50 was 0.016 to 49 µM. The same measure for `Cc1ccc(CNC(=O)c2nc3n(c(=O)c2O)CC(=O)N3C)cc1C` [Example 13, N-(3,4-Dimethylbenzyl)-6-hydroxy-1-methyl-2,5-dioxo-1,2,3,5-tetrahydroimidazo[1,2-a]pyrimidine-7-carboxamide]: 0.016 to 49 µM; for `O=C(NCc1ccc(F)cc1)c1nc2n(c(=O)c1O)CC(=O)N2Cc1ccccc1` [Example 14, N-(4-Fluorobenzyl)-1-benzyl-6-hydroxy-2,5-dioxo-1,2,3,5-tetrahydroimidazo[1,2-a]pyrimidine-7-carboxamide]: 0.016 to 49 µM; for `Cc1cc(CNC(=O)c2nc3n(c(=O)c2O)CC(=O)N3Cc2ccccc2)ccc1F` [Example 15, N-(4-Fluoro-3-methylbenzyl)-1-benzyl-6-hydroxy-2,5-dioxo-1,2,3,5-tetrahydroimidazo[1,2-a]pyrimidine-7-carboxamide]: 0.016 to 49 µM.

On to `CNC(=O)c1cc(F)ccc1CNC(=O)c1nc2n(c(=O)c1O)CC(=O)N2Cc1ccccc1` [Example 16, N-(4-Fluoro-2-(methylcarbamoyl)benzyl)-1-benzyl-6-hydroxy-2,5-dioxo-1,2,3,5-tetrahydroimidazo[1,2-a]pyrimidine-7-carboxamide], for which the IC50 lay in the range of 0.016 to 49 µM. The same measure for `CNC(=O)c1cc(F)ccc1CNC(=O)c1nc2n(c(=O)c1O)CC(=O)N2C` [Example 17, N-{4-Fluoro-2-(methylcarbamoyl)benzyl}-6-hydroxy-1-methyl-2,5-dioxo-1,2,3,5-tetrahydroimidazo[1,2-a]pyrimidine-7-carboxamide]: ≥ 0.05 µM. As for `CNC(=O)c1cc(F)ccc1CNC(=O)c1nc2n(c(=O)c1O)CCC(=O)N2C` [Example 23, N-(4-Fluoro-2-(methylcarbamoyl)benzyl)-3-hydroxy-9-methyl-4,8-dioxo-6,7,8,9-tetrahydro-4H-pyrimido[1,2-a]pyrimidine-2-carboxamide], the IC50 is 0.004 to 0.015 µM.

Regarding `O=C(NCc1ccc(F)cc1)c1nc2n(c(=O)c1O)CCS(=O)(=O)N2` [Example 24, 7-Hydroxy-2,2,6-trioxo-1,3,4,6-tetrahydro-2H-2λ^6-pyrimido[2,1-c][1,2,4]thiadiazine-8-carboxylic acid 4-fluoro-benzylamide], the IC50 is ≥ 0.05 µM. As to `CN1C(=O)Cn2c(nc(C(=O)NCc3ccc(F)cc3)c(O)c2=O)N1C` [Example 25, N-(4-Fluorobenzyl)-1,2-dimethyl-7-hydroxy-3,6-dioxo-2,3,4,6-tetrahydro-1H-pyrimido[2,1-c][1,2,4]triazine-8-carboxamide], the 50% inhibitory concentration (IC50) lay in the range of 0.016 to 49 µM. On to `CN1C(=O)Cn2c(nc(C(=O)NCc3ccc(Cl)c(Cl)c3)c(O)c2=O)N1C` [Example 26, N-(3,4-Dichlorobenzyl)-1,2-dimethyl-7-hydroxy-3,6-dioxo-2,3,4,6-tetrahydro-1H-pyrimido[2,1-c][1,2,4]triazine-8-carboxamide], for which the IC50 lay in the range of 0.016 to 49 µM.

Take `Cc1cc(CNC(=O)c2nc3n(c(=O)c2O)CC(=O)N(C)N3C)ccc1F` [Example 27, N-(4-Fluoro-3-methylbenzyl)-1,2-dimethyl-7-hydroxy-3,6-dioxo-2,3,4,6-tetrahydro-1H-pyrimido[2,1-c][1,2,4]triazine-8-carboxamide]: the IC50 lay within 0.016 to 49 µM. In the case of `CN1C(=O)Cn2c(nc(C(=O)NCc3ccc(F)c(Cl)c3)c(O)c2=O)N1C` [Example 28, N-(3-Chloro-4-fluorobenzyl)-1,2-dimethyl-7-hydroxy-3,6-dioxo-2,3,4,6-tetrahydro-1H-pyrimido[2,1-c][1,2,4]triazine-8-carboxamide] it was 0.016 to 49 µM. For `CN1Nc2nc(C(=O)NCc3ccc(F)cc3)c(O)c(=O)n2CC1=O` [Example 29, N-(4-Fluorobenzyl)-7-hydroxy-2-methyl-3,6-dioxo-2,3,4,6-tetrahydro-1H-pyrimido[2,1-c][1,2,4]triazine-8-carboxamide], the IC50 is ≥ 0.05 µM.

For the molecule `Cc1cc(CNC(=O)c2nc3n(c(=O)c2O)CC(=O)N(C)N3)ccc1F` [Example 30, N-(4-Fluoro-3-methylbenzyl)-7-hydroxy-2-methyl-3,6-dioxo-2,3,4,6-tetrahydro-1H-pyrimido[2,1-c][1,2,4]triazine-8-carboxamide], the IC50 was ≥ 0.05 µM. Take `CN1Nc2nc(C(=O)NCc3ccc(Cl)c(Cl)c3)c(O)c(=O)n2CC1=O` [Example 31, N-(3,4-Dichlorobenzyl)-7-hydroxy-2-methyl-3,6-dioxo-2,3,4,6-tetrahydro-1H-pyrimido[2,1-c][1,2,4]triazine-8-carboxamide]: the IC50 is 0.004 to 0.015 µM. In the case of `Cc1cc(CNC(=O)c2nc3n(c(=O)c2O)CC(=O)N2CCCCN32)ccc1F` [Example 32, 2-Hydroxy-1,9-dioxo-5,6,7,8,9,10-hexahydro-1H-4,4b,8a,10a-tetraaza-phenanthrene-3-carboxylic acid 4-fluoro-3-methyl-benzylamide] it was 0.004 to 0.015 µM; in that of `O=C(NCc1ccc(F)cc1)c1nc2n(c(=O)c1O)CC(=O)N1CCCCN21` [Example 33, 2-Hydroxy-1,9-dioxo-5,6,7,8,9,10-hexahydro-1H-4,4b,8a,10a-tetraaza-phenanthrene-3-carboxylic acid 4-fluoro-benzylamide], 0.016 to 49 µM; in that of `O=C(NCc1ccc(F)cc1)c1nc2n(c(=O)c1O)CC(=O)N1CCCN21` [Example 34, 7-Hydroxy-4,6-dioxo-2,3,4,5-tetrahydro-1H,6H-3a,5a,9,9b-tetraaza-benz[e]indene-8-carboxylic acid 4-fluoro-benzylamide], 0.016 to 49 µM. The same measure for `Cc1cc(CNC(=O)c2nc3n(c(=O)c2O)CC(=O)N2CCCN32)ccc1F` [Example 35, 7-Hydroxy-4,6-dioxo-2,3,4,5-tetrahydro-1H,6H-3a,5a,9,9b-tetraaza-benz[e]indene-8-carboxylic acid 4-fluoro-3-methyl-benzylamide]: 0.004 to 0.015 µM; for `O=C(NCc1ccc(F)cc1)c1nc2n(c(=O)c1O)CCS2` [Example 36, N-(4-Fluorobenzyl)-6-hydroxy-5-oxo-3,5-dihydro-2H-thiazolo[3,2-a]pyrimidine-7-carboxamide]: 0.004 to 0.015 µM. The same measure for `Cc1cc(CNC(=O)c2nc3n(c(=O)c2O)CCS3)ccc1F` [Example 37, N-(4-Fluoro-3-methylbenzyl)-6-hydroxy-5-oxo-3,5-dihydro-2H-thiazolo[3,2-a]pyrimidine-7-carboxamide]: 0.004 to 0.015 µM; for `O=C(NCc1ccc(Cl)c(Cl)c1)c1nc2n(c(=O)c1O)CCS2` [Example 38, N-(3,4-Dichlorobenzyl)-6-hydroxy-5-oxo-3,5-dihydro-2H-thiazolo[3,2-a]pyrimidine-7-carboxamide]: 0.004 to 0.015 µM; for `Cc1ccc(CNC(=O)c2nc3n(c(=O)c2O)CCS3)cc1C` [Example 39, N-(3,4-Dimethylbenzyl)-6-hydroxy-5-oxo-3,5-dihydro-2H-thiazolo[3,2-a]pyrimidine-7-carboxamide]: 0.016 to 49 µM. For `CNC(=O)c1cc(F)ccc1CNC(=O)c1nc2n(c(=O)c1O)CCS2` [Example 40, N-(4-Fluoro-2-(methylcarbamoyl)benzyl)-6-hydroxy-5-oxo-3,5-dihydro-2H-thiazolo[3,2-a]pyrimidine-7-carboxamide], the IC50 lay within 0.016 to 49 µM. For the molecule `CC1(C)Cn2c(nc(C(=O)NCc3ccc(F)cc3)c(O)c2=O)S1` [Example 41, N-(4-Fluorobenzyl)-6-hydroxy-2,2-dimethyl-5-oxo-3,5-dihydro-2H-thiazolo[3,2-a]pyrimidine-7-carboxamide], the IC50 is ≥ 0.05 µM. The same measure for `CNC(=O)c1cc(F)ccc1CNC(=O)c1nc2n(c(=O)c1O)CC(C)(C)S2` [Example 42, N-(4-Fluoro-2-(methylcarbamoyl)benzyl)-6-hydroxy-2,2-dimethyl-5-oxo-3,5-dihydro-2H-thiazolo[3,2-a]pyrimidine-7-carboxamide]: ≥ 0.05 µM.

As to `O=C1Cn2c(nc(C(=O)NCc3ccc(F)cc3)c(O)c2=O)CN1` [Example 43, N-(4-Fluorobenzyl)-3-hydroxy-4,7-dioxo-6,7,8,9-tetrahydro-4H-pyrazino[1,2-a]pyrimidine-2-carboxamide], the IC50 is ≥ 0.05 µM. For the molecule `CN1Cc2nc(C(=O)NCc3ccc(F)cc3)c(O)c(=O)n2CC1=O` [Example 44, N-(4-Fluorobenzyl)-3-hydroxy-8-methyl-4,7-dioxo-6,7,8,9-tetrahydro-4H-pyrazino[1,2-a]pyrimidine-2-carboxamide], the IC50 is ≥ 0.05 µM.
